# Data published in patent US4221682A, “Tetrapeptides having analgesic activity” (American Home Products Corporation, priority 1979, dated 1980).
# Like-named read-outs stand apart in the source and are kept apart here. Positions of bridges follow the written chain, without caps; N, C: chain ends. Non-standard residues stand in square brackets, D forms with d. Residues, ends and D or L forms follow the SMILES beside them. Chains are numbered I, II in the order given. NMeF = CN[C@@H](Cc1ccccc1)C(=O)O
# Assays:
# [1] = system: male rats; assay: rat-tail flick test of D'Amour and Smith, intravenous administration; format: in vivo; settings: for Positive Responses/Total Possible Response: all time points
# Description: The holders are situated so that a high intensity light beam will shine on the tip of the rats tail. The light beam intensity is adjusted so that normal rats respond by removing their tails from the light stimulus within from 3 to 8 seconds. The average of three time readings for removal of a rats tail from the light beam, taken 20 minutes apart serves as a pre-drug control. The rats are selected for use based upon control readings that agree within one second. The compounds of this invention are then administered intravenously and the test performed at 15, 30 and 60 minutes to determine the animals reaction time which is compared with the control average and tested for significance. The number of rats showing analgesia at each time period out of the total group for each dose administered is noted as a ratio and the number of positive responses observed is relative to the total number of challenges for each group of rats.
# [2] = cited from earlier work; for activity when administered peripherally: peripheral administration
# [3] = system: mice; settings: central administration (Baxter et al.); cited from earlier work
# [4] = system: rats; settings: cited from earlier work; for analgesia: injection in the brain ventricle in rats, fully reversible by naloxone
# [5] = central administration (Pert et al.); cited from earlier work
# [6] = system: mouse vas deferens; settings: cited from earlier work
# [7] = system: opiate receptor; settings: brain homogenates; cited from earlier work
# [8] = system: guinea pig ileum; settings: cited from earlier work
# [9] = system: rats; settings: peripheral (i.v.), rats (Bajusz et al.); cited from earlier work
compound,measurement,setting,value
"CN(C(=O)CNC(=O)[C@@H](CSSC[C@@H](NC(=O)[C@@H](N)Cc1ccc(O)cc1)C(=O)NCC(=O)N(C)[C@@H](Cc1ccccc1)C(N)=O)NC(=O)[C@@H](N)Cc1ccc(O)cc1)[C@@H](Cc1ccccc1)C(N)=O [Example 2, L-Tyrosyl-D-Cysteinyl-Glycyl-N-Methyl-L-Phenylalanyl Amide Disulfide Acetate] (I: H-Y[dC]G[NMeF]-NH2 / II: H-Y[dC]G[NMeF]-NH2; disulfide I:2-II:2)",Respiration normal (number of rats),[1]; 1.0 mg/kg i.v.,5/5
same,dead (number of rats),[1]; 1.0 mg/kg i.v.,1/6
same,No. Analgesic/No. Tested,"[1]; 1.0 mg/kg i.v., 15 minutes",3/6
same,No. Analgesic/No. Tested,"[1]; 1.0 mg/kg i.v., 30 minutes",2/6
same,No. Analgesic/No. Tested,"[1]; 1.0 mg/kg i.v., 60 minutes",1/5
same,Positive Responses/Total Possible Response,[1]; 1.0 mg/kg i.v.,6/17
same,Respiration very depressed (number of rats),[1]; 5.0 mg/kg i.v.,6/6
same,dead (number of rats),[1]; 5.0 mg/kg i.v.,0/6
same,No. Analgesic/No. Tested,"[1]; 5.0 mg/kg i.v., 15 minutes",6/6
same,No. Analgesic/No. Tested,"[1]; 5.0 mg/kg i.v., 30 minutes",5/6
same,No. Analgesic/No. Tested,"[1]; 5.0 mg/kg i.v., 60 minutes",5/6
same,Positive Responses/Total Possible Response,[1]; 5.0 mg/kg i.v.,16/18
H-Tyr-D-Ala-Gly-Phe-D-Leu-OH,peripheral analgesic activity,[2]; peripheral administration (Wei et al.; Romer et al.),exhibit peripheral analgesic activity
same,antinociceptive and behavioral effects,[3],exhibit antinociceptive and behavioral effects
same,antinociceptive and behavioral effects,"[4]; rats, central administration (Baxter et al.)",exhibit antinociceptive and behavioral effects
H-Tyr-D-Ala-Gly-Phe-D-Met-NH2,analgesic activity,"[4]; rats, centrally administered (Fredrickson)",produced analgesic activity
H-Tyr-D-Ala-Gly-Phe-Met-NH2,analgesia,[5],long lasting analgesic
H-Tyr-Gly-Gly-Phe-Leu-OH [leucine-enkephalin],block of electrically evoked contractions,[6],mimic the ability of morphine to block electrically evoked contractions
same,activity when administered peripherally,[2],inactive
same,inhibition of stereospecific receptor binding of 3H-naloxone,[7],inhibit the stereospecific receptor binding
same,block of electrically evoked contractions,[8],mimic the ability of morphine to block electrically evoked contractions
same,analgesia,[4],induce a profound analgesia
H-Tyr-Gly-Gly-Phe-Met-OH [methionine-enkephalin],block of electrically evoked contractions,[6],mimic the ability of morphine to block electrically evoked contractions
same,activity when administered peripherally,[2],inactive
same,inhibition of stereospecific receptor binding of 3H-naloxone,[7],inhibit the stereospecific receptor binding
same,block of electrically evoked contractions,[8],mimic the ability of morphine to block electrically evoked contractions
same,analgesia,[4],induce a profound analgesia
H-Y[dM]GFP-NH2,analgesic activity,[9],peripheral (i.v.) analgesic activity
